Like-named read-outs stand apart in the source and are kept apart here.
How the values were obtained:
E. coli ATCC 11229 [1] = experiment: Growth inhibition test (DGHM, Essai 2, Tables A-C), 72 h at 37°C; non/A/B/C = without or with inactivating substances A, B, C; assay type: cell-based, Escherichia coli
Method: (§1) Un autre essai a été réalisé à partir des solutions suivantes : • 100 ml d'une solution à 0,1 % de digluconate de chlorhexidine (pH 6) et • 100 ml d'une solution à 0,1 % de Bardac 22®.
L'activité de ces solutions, seules ou en combinaison a été plus particulièrement testée vis-à-vis de Staphylococcus aureus ATCC 6538, Escherichia coli ATCC 11229 et Candida albicans ATCC 10231.
(§2) Les tests ont été réalisés conformément au protocole décrit dans le Chapitre I/2.1 et 2.2 de Richtlinien für die Prüfung und Bewertung chemischer Desinfektionsverfahren der DGHM, Stand 1.1., 1981).
Les Tableaux A, B et C illustrent respectivement l'activité bactéricide et fongicide d'une solution aqueuse à 0,1 % de digluconate de chlorhexidine, d'une solution aqueuse à 0,1 % de Bardac 22® et d'un mélange à part égale des deux composés. Les protocoles dont ces Tableaux illustrent les résultats comprennent une incubation de 72 heures à 37°C et l'utilisation, comme témoins, des substances inactivantes suivantes : A : Tween® 80 3 % + lécithine 0,3 % + cystéine 0,1 %; B : Tween® 80 3 % + saponine 3 % + cystéine 0,1 % + histidine 0,1 %; C : Tween® 80 3 % + lécithine 0,3 % + histidine 0,1 % + thiosulfate de sodium 0,5 %.
Dans ces Tableaux, le signe "+" indique une croissance et le signe "-" l'absence de croissance.

E. coli ATCC 11229 [2] = experiment: Disinfection time test (Essai 2, Tables D-F), reaction at 22°, subcultures 72 h at 37°C; assay type: cell-based, Escherichia coli
Method: as §1, §2
Les tests dont les résultats sont illustrés aux Tableaux D, E et F ont été réalisés à une température de réaction de 22° avec une incubation des sous-cultures 72 heures à 37°C avec comme substances inactivantes : Tween® 80 3 % + saponine 3 % + cystéine 0,1 % + histidine 0,1 %; ces Tableaux illustrent respectivement l'activité bactéricide et fongicide d'une solution aqueuse à 0,1 % de digluconate de chlorhexidine, d'une solution aqueuse à 0,1 % de Bardac 22® et d'un mélange à part égale des deux composés et montrent l'action des antiseptiques précités, en fonction du temps de contact, et font apparaître la même synergie d'action de l'association que ci-dessus, dans la mesure où l'association des deux composés permet de diminuer significativement leur concentration, pour l'obtention d'un même effet. TABLEAU D

spermatozoïdes = experiment: Spermicidal action: vitality of spermatozoa (eosin-nigrosin, 100 spermatozoa examined); assay type: cell-based; conditions: Homo sapiens, Sperm, solution 0,5 %, read-out: vitalité des spermatozoïdes
From the text: Les différents échantillons de sperme (une goutte de sperme/échantillon) sont obtenus à partir de volontaires sains.
Une goutte de sperme est traitée par l'éosinenigrosine. Un frottis est ensuite réalisé et cent spermatozoïdes sont examinés au microscope. Les cellules mortes sont colorées en rouge, soit totalement, soit partiellement. Les cellules vivantes sont incolores.
Les substances étudiées ont été, le Bardac® et le digluconate de chlorhexidine, testés seuls et en association conformément à l'invention. Les différentes étapes du protocole sont indiquées aux Tableaux IV à VI.
Le temps de contact maximum des différentes substances et du sperme a été limité à 3 minutes afin de garantir l'efficacité de la méthode dans les conditions d'utilisation. La concentration des solutions actives dans le sperme a été limitée à 10 % afin de diminuer les risques de toxicité des produits pour les muqueuses. TABLEAU IV

[H]/N=C(\N/C(=N/[H])NCCCCCCNC(=N)NC(=N)Nc1ccc(Cl)cc1)Nc1ccc(Cl)cc1 [Chlorhexidine, digluconate de chlorhexidine, reference compound]
-: croissance (E. coli ATCC 11229 [1]; Conc. 0,5 % (vol/vol), non) | croissance (E. coli ATCC 11229 [1]; Conc. 1,0 % (vol/vol), non) | croissance (E. coli ATCC 11229 [2]; Conc. 5 % (vol/vol), 30 min) | croissance (E. coli ATCC 11229 [2]; Conc. 5 % (vol/vol), 60 min) | croissance (E. coli ATCC 11229 [2]; Conc. 10 % (vol/vol), 15 min) | croissance (E. coli ATCC 11229 [2]; Conc. 10 % (vol/vol), 30 min) | croissance (E. coli ATCC 11229 [2]; Conc. 10 % (vol/vol), 60 min) | croissance (E. coli ATCC 11229 [2]; Conc. 25 % (vol/vol), 15 min) | croissance (E. coli ATCC 11229 [2]; Conc. 25 % (vol/vol), 30 min) | croissance (E. coli ATCC 11229 [2]; Conc. 25 % (vol/vol), 60 min)
77.2 ± 5.6%: viability at 0.5 % (spermatozoïdes; 1 min, 1 Min, 10 % dans le sperme)
+: croissance (E. coli ATCC 11229 [1]; Conc. 0,1 % (vol/vol), A) | croissance (E. coli ATCC 11229 [1]; Conc. 0,1 % (vol/vol), B) | croissance (E. coli ATCC 11229 [1]; Conc. 0,1 % (vol/vol), C) | croissance (E. coli ATCC 11229 [1]; Conc. 0,1 % (vol/vol), non) | croissance (E. coli ATCC 11229 [1]; Conc. 0,05 % (vol/vol), A) | croissance (E. coli ATCC 11229 [1]; Conc. 0,5 % (vol/vol), A) | croissance (E. coli ATCC 11229 [1]; Conc. 0,05 % (vol/vol), B) | croissance (E. coli ATCC 11229 [1]; Conc. 0,5 % (vol/vol), B) | croissance (E. coli ATCC 11229 [1]; Conc. 0,05 % (vol/vol), C) | croissance (E. coli ATCC 11229 [1]; Conc. 0,5 % (vol/vol), C) | croissance (E. coli ATCC 11229 [1]; Conc. 0,05 % (vol/vol), non) | croissance (E. coli ATCC 11229 [1]; Conc. 1,0 % (vol/vol), A) | croissance (E. coli ATCC 11229 [1]; Conc. 1,0 % (vol/vol), B) | croissance (E. coli ATCC 11229 [1]; Conc. 1,0 % (vol/vol), C) | croissance (E. coli ATCC 11229 [1]; Conc. 0,00625 % (vol/vol), A) | croissance (E. coli ATCC 11229 [1]; Conc. 0,00625 % (vol/vol), B) | croissance (E. coli ATCC 11229 [1]; Conc. 0,00625 % (vol/vol), C) | croissance (E. coli ATCC 11229 [1]; Conc. 0,00625 % (vol/vol), non) | croissance (E. coli ATCC 11229 [1]; Conc. 0,0125 % (vol/vol), A) | croissance (E. coli ATCC 11229 [1]; Conc. 0,0125 % (vol/vol), B) | croissance (E. coli ATCC 11229 [1]; Conc. 0,0125 % (vol/vol), C) | croissance (E. coli ATCC 11229 [1]; Conc. 0,0125 % (vol/vol), non) | croissance (E. coli ATCC 11229 [1]; Conc. 0,025 % (vol/vol), A) | croissance (E. coli ATCC 11229 [1]; Conc. 0,025 % (vol/vol), B) | croissance (E. coli ATCC 11229 [1]; Conc. 0,025 % (vol/vol), C) | croissance (E. coli ATCC 11229 [1]; Conc. 0,025 % (vol/vol), non) | croissance (E. coli ATCC 11229 [2]; Conc. 0,1 % (vol/vol), 1 min) | croissance (E. coli ATCC 11229 [2]; Conc. 0,1 % (vol/vol), 3 min) | croissance (E. coli ATCC 11229 [2]; Conc. 0,1 % (vol/vol), 5 min) | croissance (E. coli ATCC 11229 [2]; Conc. 0,1 % (vol/vol), 15 min) | croissance (E. coli ATCC 11229 [2]; Conc. 0,1 % (vol/vol), 30 min) | croissance (E. coli ATCC 11229 [2]; Conc. 0,1 % (vol/vol), 60 min) | croissance (E. coli ATCC 11229 [2]; Conc. 0,05 % (vol/vol), 1 min) | croissance (E. coli ATCC 11229 [2]; Conc. 0,5 % (vol/vol), 1 min) | croissance (E. coli ATCC 11229 [2]; Conc. 0,05 % (vol/vol), 3 min) | croissance (E. coli ATCC 11229 [2]; Conc. 0,5 % (vol/vol), 3 min) | croissance (E. coli ATCC 11229 [2]; Conc. 0,05 % (vol/vol), 5 min) | croissance (E. coli ATCC 11229 [2]; Conc. 0,5 % (vol/vol), 5 min) | croissance (E. coli ATCC 11229 [2]; Conc. 0,05 % (vol/vol), 15 min) | croissance (E. coli ATCC 11229 [2]; Conc. 0,5 % (vol/vol), 15 min) | croissance (E. coli ATCC 11229 [2]; Conc. 0,05 % (vol/vol), 30 min) | croissance (E. coli ATCC 11229 [2]; Conc. 0,5 % (vol/vol), 30 min) | croissance (E. coli ATCC 11229 [2]; Conc. 0,05 % (vol/vol), 60 min) | croissance (E. coli ATCC 11229 [2]; Conc. 0,5 % (vol/vol), 60 min) | croissance (E. coli ATCC 11229 [2]; Conc. 1 % (vol/vol), 1 min) | croissance (E. coli ATCC 11229 [2]; Conc. 1 % (vol/vol), 3 min) | croissance (E. coli ATCC 11229 [2]; Conc. 1 % (vol/vol), 5 min) | croissance (E. coli ATCC 11229 [2]; Conc. 1 % (vol/vol), 15 min) | croissance (E. coli ATCC 11229 [2]; Conc. 1 % (vol/vol), 30 min) | croissance (E. coli ATCC 11229 [2]; Conc. 1 % (vol/vol), 60 min) | croissance (E. coli ATCC 11229 [2]; Conc. 5 % (vol/vol), 1 min) | croissance (E. coli ATCC 11229 [2]; Conc. 5 % (vol/vol), 3 min) | croissance (E. coli ATCC 11229 [2]; Conc. 5 % (vol/vol), 5 min) | croissance (E. coli ATCC 11229 [2]; Conc. 5 % (vol/vol), 15 min) | croissance (E. coli ATCC 11229 [2]; Conc. 10 % (vol/vol), 1 min) | croissance (E. coli ATCC 11229 [2]; Conc. 10 % (vol/vol), 3 min) | croissance (E. coli ATCC 11229 [2]; Conc. 10 % (vol/vol), 5 min) | croissance (E. coli ATCC 11229 [2]; Conc. 25 % (vol/vol), 1 min) | croissance (E. coli ATCC 11229 [2]; Conc. 25 % (vol/vol), 3 min) | croissance (E. coli ATCC 11229 [2]; Conc. 25 % (vol/vol), 5 min)
75.5%: viability at 0.5 % (spermatozoïdes; 0.05 h, 3 Min, 10 % dans le sperme)
78 ± 5.7%: viability at 0.5 % (spermatozoïdes; 0.05 h, 3 Min, 5 % dans le sperme)
77 ± 10.8%: viability at 0.5 % (spermatozoïdes; 1 min, 1 Min, 5 % dans le sperme)
0,0005%: concentration en substance active inhibant la croissance (E. coli ATCC 11229 [1]; antiseptique seul)
